Measured values taken from US9956200B2, “Compositions comprising dihydroquercetin for use in methods for treating the effects associated with skin inflammatory disorders” (BIONOOX SUISSE SA, priority 2014, dated 2018).
Several values for one entry are separate records, joined by “and”; a condition that tells them apart may be missing. Equal entries are not always repeated.

Experiments:
Assay type in all cases: cell-based
human mast cells = assay: Mast cell degranulation (beta-hexosaminidase release) induced by IgE then anti-IgE; conditions: versus kinase inhibitors and chromoglycate (reference molecule)
From the text: Pure populations of human mast cells (HMC) are obtained by long-term culture of human normal hematopoietic progenitors (CD34^+ cells) in the continuous presence of Stem Cell Factor (SCF). Sources of these CD34^+ cells are mainly bone marrow, cord blood or peripheral blood. Usually, mononuclear cells from bone marrow and cord blood contain 0.5-1% of CD34^+ cells, whereas peripheral blood contains less than 0.1% of CD34^+ cells. Hematopoietic progenitor cells can be rapidly and efficiently enriched to a purity of about 85-98% using positive selection of magnetically labeled CD34^+ cells. Hematopoietic progenitor cells are then magnetically labeled using MACS CD34 MicroBeads. The magnetically labeled cells are enriched on positive selection columns in the magnetic field. Mononuclear cells from peripheral blood (PBMC), cord blood, or bone marrow may otherwise be obtained by density gradient centrifugation over Ficoll Paque®. Fractionation methods for producing mast cells are described in the art (see for instance Arock et al., 2008, Methods in Molecular biology 415: 241-254). Mast cell degranulation was induced by sequential treatment of mast cell by IgE, then by anti-IgE antibodies. Degranulation was subsequently measured by evaluating the release of beta-hexosaminidase, 1 h after IgE stimulation (see FIG. 4).

[1] = system: polymorphonuclear neutrophils; assay: Oxygen consumption of polymorphonuclear neutrophils triggered by PMA and fMLP; conditions: data not shown
[2] = system: neutrophils triggered by fMLP; assay: ROS production by luminol chemiluminescence, neutrophils triggered by fMLP; conditions: fMLP 10^−6 M; DHQ 1, 10 or 100 μM, concentration per sample not given
Procedure: Neutrophils (5×10^5) are suspended in 0.5 mL of Hanks balanced salt solution containing 10 μM luminol at 37° C. The cells are then stimulated with 10^−6M fMLF (N-formylmethionyl-leucyl-phenylalanine). Chemiluminescence is recorded with a luminometer (Berthold-Biolumat LB937). Similarly, neutrophils were triggered by fMLP (10^−6 M) in the presence of different concentrations of DHQ (0, 1, 10 and 100 μM) at 37° C. in Hanks buffer containing 10 μM luminol and chemiluminescence was measured by a chemiluminometer. Total chemiluminescence counts during 22.21 min. (integrals) corresponding to total ROS production were determined.

## O=C1c2c(O)cc(O)cc2OC(c2ccc(O)c(O)c2)C1O (stereo not shown) [DHQ]
Human mast cells
  inhibitory activity on mast cell degranulation compared with reference molecules: superior to kinase inhibitors and chromoglycate
[1]
  effect on oxygen consumption of polymorphonuclear neutrophils: strongly inhibits
[2]
  T.half (fall): 3.78 and 3.55
  T.half (rise): 1.55
